Laboratory results published in the supplement of paper PMC10307832.

How the values were obtained:
Assay in all cases: relative viability (nuclei count vs DMSO), 5 days (fraction); higher = more cells survive
Imatinib + Alpelisib = compound: Cc1ccc(NC(=O)c2ccc(CN3CCN(C)CC3)cc2)cc1Nc1nccc(-c2cccnc2)n1 [Imatinib] + Cc1nc(NC(=O)N2CCC[C@H]2C(N)=O)sc1-c1ccnc(C(C)(C)C(F)(F)F)c1 [Alpelisib] (partner 2 µM)
Method in brief: (§1)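 The day after seeding in 1536-well plates, lung cancer cell lines were treated by pin tool with a single drug, or with a fixed anchor-drug dose together with five library-drug doses (not always all listed) in √10 steps. After 5 days, a combined fix-and-stain solution (final 0.05% Triton X-100, 1% formaldehyde, 1 ug/ml Hoechst) was added. Nuclei counted on 4× images gave relative viability as treated counts over vehicle counts, reported as the median of duplicate plates.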

Imatinib + Pictilisib = compound: Cc1ccc(NC(=O)c2ccc(CN3CCN(C)CC3)cc2)cc1Nc1nccc(-c2cccnc2)n1 [Imatinib] + CS(=O)(=O)N1CCN(Cc2cc3nc(-c4cccc5[nH]ncc45)nc(N4CCOCC4)c3s2)CC1 [Pictilisib] (partner 1 µM)
Method in brief: as §1

Imatinib + OSI-027 = compound: Cc1ccc(NC(=O)c2ccc(CN3CCN(C)CC3)cc2)cc1Nc1nccc(-c2cccnc2)n1 [Imatinib] + COc1cccc2cc(-c3nc([C@H]4CC[C@H](C(=O)O)CC4)n4ncnc(N)c34)[nH]c12 [OSI-027] (partner 0.5 µM)
Method in brief: as §1

Imatinib + Crizotinib = compound: Cc1ccc(NC(=O)c2ccc(CN3CCN(C)CC3)cc2)cc1Nc1nccc(-c2cccnc2)n1 [Imatinib] + C[C@@H](Oc1cc(-c2cnn(C3CCNCC3)c2)cnc1N)c1c(Cl)ccc(F)c1Cl [Crizotinib] (partner 1 µM)
Method in brief: as §1

Cell Line | relative viability (Imatinib + Alpelisib; first compound 0.02 µM) | relative viability (Imatinib + Alpelisib; first compound 0.06325 µM) | relative viability (Imatinib + Alpelisib; first compound 0.2 µM) | relative viability (Imatinib + Alpelisib; first compound 0.6325 µM) | relative viability (Imatinib + Alpelisib; first compound 2 µM) | relative viability (Imatinib + Pictilisib; first compound 0.02 µM) | relative viability (Imatinib + Pictilisib; first compound 0.06325 µM) | relative viability (Imatinib + Pictilisib; first compound 0.2 µM) | relative viability (Imatinib + Pictilisib; first compound 0.6325 µM) | relative viability (Imatinib + Pictilisib; first compound 2 µM) | relative viability (Imatinib + OSI-027; first compound 0.02 µM) | relative viability (Imatinib + OSI-027; first compound 0.06325 µM) | relative viability (Imatinib + OSI-027; first compound 0.2 µM) | relative viability (Imatinib + OSI-027; first compound 0.6325 µM) | relative viability (Imatinib + OSI-027; first compound 2 µM) | relative viability (Imatinib + Crizotinib; first compound 0.02 µM) | relative viability (Imatinib + Crizotinib; first compound 0.06325 µM) | relative viability (Imatinib + Crizotinib; first compound 0.6325 µM) | relative viability (Imatinib + Crizotinib; first compound 0.2 µM) | relative viability (Imatinib + Crizotinib; first compound 2 µM)
NCI-H322M | 0.771 | 0.871 | 0.857 | 0.772 | 0.866 | 0.516 | 0.454 | 0.561 | 0.485 | 0.565 | 0.624 | 0.544 | 0.553 | 0.522 | 0.52 | 0.966 | 1.1 | 0.836 | – | –
NCI-H358 | 0.799 | – | 0.841 | 0.759 | 0.868 | 0.292 | – | 0.326 | 0.275 | 0.347 | 0.861 | 0.382 | 0.843 | 0.635 | 0.855 | 0.616 | – | 0.555 | 0.571 | 0.616
NCI-H441 | 0.633 | 0.903 | 0.87 | 0.706 | 0.605 | 0.501 | 0.437 | 0.578 | 0.502 | 0.435 | 0.675 | 0.561 | 0.632 | 0.581 | 0.563 | 0.659 | 0.796 | 0.879 | 0.796 | 0.737
NCI-H460 | 0.632 | 0.818 | 0.667 | 0.532 | 0.465 | 0.465 | 0.277 | 0.335 | 0.506 | 0.3 | 0.743 | 1.09 | 0.819 | 0.566 | 0.503 | 1.29 | 1.38 | 0.881 | 1.55 | 0.85
NCI-H520 | 0.645 | 1.15 | 1.07 | 0.842 | 0.912 | 0.348 | 0.362 | 0.305 | 0.289 | 0.306 | 0.214 | 0.255 | 0.242 | 0.224 | 0.273 | 0.764 | 0.978 | 0.963 | 0.874 | 0.647
NCI-H596 | 0.489 | 0.459 | 0.39 | 0.446 | 0.448 | 0.416 | 0.375 | 0.42 | 0.394 | 0.388 | 0.775 | 0.669 | 0.689 | 0.626 | 0.61 | – | 0.991 | 0.928 | 1.06 | 0.975
NCI-H647 | 1.25 | 1.4 | 1.6 | 1.13 | 1.11 | 0.462 | 0.447 | 0.433 | 0.38 | 0.385 | 0.621 | 0.693 | 0.704 | 0.626 | 0.562 | 1.1 | 1.36 | 1.12 | 1.45 | 1.06
NCI-H650 | 1.19 | 1.15 | 1.08 | 1.2 | 0.983 | 1.09 | 1.01 | 0.855 | 0.885 | – | 0.557 | 0.496 | 0.51 | 0.544 | 0.459 | 0.708 | 0.913 | 0.656 | 0.916 | 0.812
NCI-H661 | 0.689 | 0.406 | 0.546 | 0.68 | 0.521 | 0.333 | 0.431 | 0.456 | 0.374 | 0.413 | 0.738 | 0.818 | 0.802 | 0.645 | 0.695 | – | 0.806 | – | 1.05 | 0.869
NCI-H727 | 0.496 | 0.585 | 0.529 | 0.659 | – | 0.356 | 0.442 | 0.355 | 0.524 | 0.383 | 0.455 | 0.476 | 0.519 | 0.773 | 0.551 | – | 0.853 | 0.845 | 0.944 | 0.792
NCI-H838 | 1.02 | 1.06 | 1.12 | 1.06 | 1.04 | 0.447 | 0.55 | 0.519 | 0.465 | 0.499 | 0.407 | 0.389 | 0.406 | 0.407 | 0.421 | 0.956 | 1.25 | 0.736 | – | 0.931
NCI-H1355 | 0.855 | – | 0.834 | 0.889 | 0.882 | 0.432 | – | 0.434 | 0.468 | 0.536 | 0.386 | – | 0.388 | 0.315 | 0.432 | 1.13 | – | 1.03 | 1.21 | 1.15
NCI-H1437 | 1.13 | 1.16 | 1.02 | 0.981 | 0.94 | 0.391 | 0.454 | 0.422 | 0.463 | 0.424 | 0.998 | 0.945 | – | 0.911 | 0.891 | 1.02 | 1.15 | 1.07 | 1.1 | 0.878
NCI-H1563 | 0.966 | 0.931 | 1.03 | 0.934 | 0.895 | 0.662 | 0.537 | 0.634 | 0.605 | 0.589 | 0.825 | 0.803 | 0.774 | 0.743 | 0.731 | 0.823 | 0.884 | 0.884 | 0.863 | 0.825
NCI-H1651 | 0.994 | 1.19 | 1.18 | 0.894 | 1.01 | 0.759 | 0.62 | 0.698 | 0.634 | 0.569 | – | 0.848 | 0.727 | 0.739 | 0.665 | 0.916 | 0.775 | 0.855 | – | 0.891
NCI-H1734 | 0.749 | – | 0.769 | 0.699 | – | 0.515 | – | 0.559 | 0.428 | – | 0.656 | 0.54 | 0.64 | 0.609 | 0.5 | 0.674 | – | 0.642 | 0.891 | –
NCI-H1755 | 1.09 | 1.04 | 1.13 | 0.949 | 0.981 | 0.457 | 0.348 | 0.531 | 0.495 | 0.473 | 0.748 | 0.554 | 0.829 | 0.634 | 0.594 | 1.08 | 1.12 | 0.808 | 1.06 | 0.794
